Experimental data: patent US9499550B2 (BRISTOL-MYERS SQUIBB COMPANY, priority 2012, dated 2016)

Legend:
[1] = tested on: HCV genotype 1a (H77 strain) replicon in HUH-7 cells; test: HCV replicon luciferase reporter assay, genotype 1a; assay type: cell-based; details: Hepatitis C virus, Huh-7, 72 h, HCV genotype 1a replicon luciferase, 3 days incubation, read-out: LE_1a (EC50, range)
How it was run: (§1)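 Replicon inhibition for both genotypes was measured as Renilla luciferase signal (EnduRen, 7.5 μM final, 2 h) after 3-day, 37° C exposure of replicon-bearing HUH-7 cells in 4% FCS DMEM, 0.5% DMSO. The 1b construct carries S1179I; the 1a H77 construct carries P1496L and S2204I. Twenty-point, 3-fold dilutions were fitted four-parametrically for EC50, and CC50 was taken from multiplexed Cell Titer-Blue.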

[2] = tested on: HCV genotype 1b (Con1) replicon in HUH-7 cells; test: HCV replicon luciferase reporter assay, genotype 1b; assay type: cell-based; details: Hepatitis C virus, Huh-7, 72 h, HCV genotype 1b replicon luciferase, 3 days incubation, read-out: LE_1b (EC50, range)
How it was run: as §1

| Compound | EC50 [1] | EC50 [2] |
| --- | --- | --- |
| CC[C@@H]1C[C@H](C)CC/C=C\[C@@H]2C[C@@]2(C(=O)NS(=O)(=O)C2(CF)CC2)NC(=O)[C@@H]2C[C@@H](Oc3ncc(N4CCOCC4)c4ccccc34)CN2C(=O)[C@H]1NC(=O)OC(C)(C)C(F)(F)F [Compound 5445, 1,1,1-trifluoro-2-methylpropan-2-yl((2R,6S,7R,9R,13aS,14aR,16aS,Z)-7-ethyl-14a-(((1-(fluoromethyl)cyclopropyl)sulfonyl)carbamoyl)-9-methyl-2-((4-morpholinoisoquinolin-1-yl)oxy)-5,16-dioxo-1,2,3,5,6,7,8,9,10,11,13a,14,14a,15,16,16a-hexadecahydrocyclopropa[e]pyrrolo[1,2-a][1,4]diazacyclopentadecin-6-yl)carbamate] | 1.01 to 5 nM | 1.01 to 5 nM |
| CC[C@@H]1C[C@H](C)CC/C=C\[C@@H]2C[C@@]2(C(=O)NS(=O)(=O)C2(CF)CC2)NC(=O)[C@@H]2C[C@@H](Oc3ncc(N4CCOCC4)c4ccccc34)CN2C(=O)[C@H]1NC(=O)OC(C)(C)C(C)(F)F [Compound 5447, 3,3-difluoro-2-methylbutan-2-yl((2R,6S,7R,9R,13aS,14aR,16aS,Z)-7-ethyl-14a-(((1-(fluoromethyl)cyclopropyl)sulfonyl)carbamoyl)-9-methyl-2-((4-morpholinoisoquinolin-1-yl)oxy)-5,16-dioxo-1,2,3,5,6,7,8,9,10,11,13a,14,14a,15,16,16a-hexadecahydrocyclopropa[e]pyrrolo[1,2-a][1,4]diazacyclopentadecin-6-yl)carbamate] | 1.01 to 5 nM | 1.01 to 5 nM |
| C[C@@H]1CC/C=C\[C@@H]2C[C@@]2(C(=O)NS(=O)(=O)C2(CF)CC2)NC(=O)[C@@H]2C[C@@H](Oc3ncc(N4CCOCC4)c4ccccc34)CN2C(=O)[C@@H](NC(=O)OC(C)(C)C(F)(F)F)[C@H](C)C1 [Compound 5449, 1,1,1-trifluoro-2-methylpropan-2-yl((2R,6S,7R,9R,13aS,14aR,16aS,Z)-14a-(((1-(fluoromethyl)cyclopropyl)sulfonyl)carbamoyl)-7,9-dimethyl-2-((4-morpholinoisoquinolin-1-yl)oxy)-5,16-dioxo-1,2,3,5,6,7,8,9,10,11,13a,14,14a,15,16,16a-hexadecahydrocyclopropa[e]pyrrolo[1,2-a][1,4]diazacyclopentadecin-6-yl)carbamate] | 1.01 to 5 nM | 0.51 to 1 nM |
| C[C@@H]1CC/C=C\[C@@H]2C[C@@]2(C(=O)NS(=O)(=O)C2(CF)CC2)NC(=O)[C@@H]2C[C@@H](Oc3ncc(N4CCOCC4)c4ccccc34)CN2C(=O)[C@@H](NC(=O)OC(C)(C)C(C)(F)F)[C@H](C)C1 [Compound 5451, 3,3-difluoro-2-methylbutan-2-yl((2R,6S,7R,9R,13aS,14aR,16aS,Z)-14a-(((1-(fluoromethyl)cyclopropyl)sulfonyl)carbamoyl)-7,9-dimethyl-2-((4-morpholinoisoquinolin-1-yl)oxy)-5,16-dioxo-1,2,3,5,6,7,8,9,10,11,13a,14,14a,15,16,16a-hexadecahydrocyclopropa[e]pyrrolo[1,2-a][1,4]diazacyclopentadecin-6-yl)carbamate] | 1.01 to 5 nM | 1.01 to 5 nM |
| [2H]C([2H])([2H])C(OC(=O)N[C@@H]1C(=O)N2C[C@H](Oc3ncc(OC)c4ccc(F)cc34)C[C@H]2C(=O)N[C@]2(C(=O)NS(=O)(=O)C3(C)CC3)C[C@H]2/C=C\CC[C@@H](C)C[C@H]1CC)(C([2H])([2H])[2H])C(F)(F)F [Compound 5453] | 1.01 to 5 nM | 0.51 to 1 nM |
| CC[C@@H]1C[C@H](C)CC/C=C\[C@@H]2C[C@@]2(C(=O)NS(=O)(=O)C2(C)CC2)NC(=O)[C@@H]2C[C@@H](Oc3ncc(OC)c4ccc(F)cc34)CN2C(=O)[C@H]1NC(=O)OC(C)(C)C(C)(F)F [Compound 5455, 3,3-difluoro-2-methylbutan-2-yl((2R,6S,7R,9R,13aS,14aR,16aS,Z)-7-ethyl-2-((7-fluoro-4-methoxyisoquinolin-1-yl)oxy)-9-methyl-14a-(((1-methylcyclopropyl)sulfonyl)carbamoyl)-5,16-dioxo-1,2,3,5,6,7,8,9,10,11,13a,14,14a,15,16,16a-hexadecahydrocyclopropa[e]pyrrolo[1,2-a][1,4]diazacyclopentadecin-6-yl)carbamate] | 1.01 to 5 nM | 0.1 to 0.5 nM |
| CC[C@@H]1C[C@H](C)CC/C=C\[C@@H]2C[C@@]2(C(=O)NS(=O)(=O)C2(C)CC2)NC(=O)[C@@H]2C[C@@H](Oc3ncc(N4CCOCC4)c4ccccc34)CN2C(=O)[C@H]1NC(=O)OC(C)(C)C(C)(F)F [Compound 5457, 3,3-difluoro-2-methylbutan-2-yl((2R,6S,7R,9R,13aS,14aR,16aS,Z)-7-ethyl-9-methyl-14a-(((1-methylcyclopropyl)sulfonyl)carbamoyl)-2-((4-morpholinoisoquinolin-1-yl)oxy)-5,16-dioxo-1,2,3,5,6,7,8,9,10,11,13a,14,14a,15,16,16a-hexadecahydrocyclopropa[e]pyrrolo[1,2-a][1,4]diazacyclopentadecin-6-yl)carbamate] | 1.01 to 5 nM | 0.51 to 1 nM |
| C[C@@H]1CC/C=C\[C@@H]2C[C@@]2(C(=O)NS(=O)(=O)C2(C)CC2)NC(=O)[C@@H]2C[C@@H](Oc3ncc(N4CCOCC4)c4ccccc34)CN2C(=O)[C@@H](NC(=O)OC(C)(C)C(C)(F)F)[C@H](C)C1 [Compound 5459, 3,3-difluoro-2-methylbutan-2-yl((2R,6S,7R,9R,13aS,14aR,16aS,Z)-7,9-dimethyl-14a-(((1-methylcyclopropyl)sulfonyl)carbamoyl)-2-((4-morpholinoisoquinolin-1-yl)oxy)-5,16-dioxo-1,2,3,5,6,7,8,9,10,11,13a,14,14a,15,16,16a-hexadecahydrocyclopropa[e]pyrrolo[1,2-a][1,4]diazacyclopentadecin-6-yl)carbamate] | 1.01 to 5 nM | 1.01 to 5 nM |
| CC[C@@H]1C[C@H](C)CC/C=C\[C@@H]2C[C@@]2(C(=O)NS(=O)(=O)C2(CF)CC2)NC(=O)[C@@H]2C[C@@H](Oc3nccc4c5c(ccc34)OCCO5)CN2C(=O)[C@H]1NC(=O)OC(C)(C)C(C)(F)F [Compound 5461, 3,3-difluoro-2-methylbutan-2-yl((2R,6S,7R,9R,13aS,14aR,16aS,Z)-2-((2,3-dihydro-[1,4]dioxino[2,3-f]isoquinolin-7-yl)oxy)-7-ethyl-14a-(((1-(fluoromethyl)cyclopropyl)sulfonyl)carbamoyl)-9-methyl-5,16-dioxo-1,2,3,5,6,7,8,9,10,11,13a,14,14a,15,16,16a-hexadecahydrocyclopropa[e]pyrrolo[1,2-a][1,4]diazacyclopentadecin-6-yl)carbamate] | 1.01 to 5 nM | 1.01 to 5 nM |
| CC[C@@H]1C[C@H](C)CC/C=C\[C@@H]2C[C@@]2(C(=O)NS(=O)(=O)C2(CF)CC2)NC(=O)[C@@H]2C[C@@H](Oc3nccc4c5c(ccc34)N(C)CCO5)CN2C(=O)[C@H]1NC(=O)OC(C)(C)C(C)(F)F [Compound 5463, 3,3-difluoro-2-methylbutan-2-yl((2R,6S,7R,9R,13aS,14aR,16aS,Z)-7-ethyl-14a-(((1-(fluoromethyl)cyclopropyl)sulfonyl)carbamoyl)-9-methyl-2-((4-methyl-3,4-dihydro-2H-[1,4]oxazino[2,3-f]isoquinolin-7-yl)oxy)-5,16-dioxo-1,2,3,5,6,7,8,9,10,11,13a,14,14a,15,16,16a-hexadecahydrocyclopropa[e]pyrrolo[1,2-a][1,4]diazacyclopentadecin-6-yl)carbamate] | 5.01 to 35 nM | 5.01 to 35 nM |
| CC[C@@H]1C[C@H](C)CC/C=C\[C@@H]2C[C@@]2(C(=O)NS(=O)(=O)C2(CF)CC2)NC(=O)[C@@H]2C[C@@H](Oc3nccc4c5c(ccc34)N(C)CCO5)CN2C(=O)[C@H]1NC(=O)OC(C)(C)C(F)(F)F [Compound 5465, 1,1,1-trifluoro-2-methylpropan-2-yl((2R,6S,7R,9R,13aS,14aR,16aS,Z)-7-ethyl-14a-(((1-(fluoromethyl)cyclopropyl)sulfonyl)carbamoyl)-9-methyl-2-((4-methyl-3,4-dihydro-2H-[1,4]oxazino[2,3-f]isoquinolin-7-yl)oxy)-5,16-dioxo-1,2,3,5,6,7,8,9,10,11,13a,14,14a,15,16,16a-hexadecahydrocyclopropa[e]pyrrolo[1,2-a][1,4]diazacyclopentadecin-6-yl)carbamate] | 1.01 to 5 nM | 1.01 to 5 nM |
| [2H]C([2H])([2H])C(OC(=O)N[C@@H]1C(=O)N2C[C@H](Oc3ncc(OC)c4ccc(F)cc34)C[C@H]2C(=O)N[C@]2(C(=O)NS(=O)(=O)C3CC3)C[C@H]2/C=C\CC[C@@H](C)C[C@H]1CC)(C([2H])([2H])[2H])C(F)(F)F [Compound 5467] | 1.01 to 5 nM | 0.1 to 0.5 nM |
| CC[C@@H]1C[C@H](C)CC/C=C\[C@@H]2C[C@@]2(C(=O)NS(=O)(=O)C2CC2)NC(=O)[C@@H]2C[C@@H](Oc3ncc(OC)c4ccc(F)cc34)CN2C(=O)[C@H]1NC(=O)OC(C)(C)C(C)(F)F [Compound 5469, 3,3-difluoro-2-methylbutan-2-yl((2R,6S,7R,9R,13aS,14aR,16aS,Z)-14a-((cyclopropylsulfonyl)carbamoyl)-7-ethyl-2-((7-fluoro-4-methoxyisoquinolin-1-yl)oxy)-9-methyl-5,16-dioxo-1,2,3,5,6,7,8,9,10,11,13a,14,14a,15,16,16a-hexadecahydrocyclopropa[e]pyrrolo[1,2-a][1,4]diazacyclopentadecin-6-yl)carbamate] | 1.01 to 5 nM | 0.1 to 0.5 nM |
| [2H]C([2H])([2H])C(OC(=O)N[C@@H]1C(=O)N2C[C@H](Oc3nccc4cc(OC)c(F)cc34)C[C@H]2C(=O)N[C@]2(C(=O)NS(=O)(=O)C3CC3)C[C@H]2/C=C\CC[C@@H](C)C[C@H]1CC)(C([2H])([2H])[2H])C(F)(F)F [Compound 5471] | 1.01 to 5 nM | 0.1 to 0.5 nM |
